Source: patent publication US6603046B1, “Bis-aromatic a,β-unsaturated ketones” (Lica Pharmaceuticals A/S, priority 1992, dated 2003)
Values after ≈ are worked out from the molar mass of the structure shown. Like-named read-outs stand apart in the source and are kept apart here.

Experiments:
[1] = Rate of the reaction between N-acetyl-L-cysteine and chalcones, HPLC; type: physicochemical; conditions: methanol-water-potassium phosphate buffer pH 7.5, 30° C.; first order
From the text: The decline of the chalcone concentration was followed by HPLC. The following experimental setups were used: 1. […] 2. […] This system was used i the case of 4′-methoxychalcone. The rate of decline of the chalcone concentration was followed by HPLC. The rate constant was estimated using Grafit and assuming that the reaction followed first order kinetic; i.e.: [c]=[c0]exp(−kt) where [c] is the concentration of the chalcone in question at time t, [c0] is the concentration of the chalcone in question at time zero, k is the rate constant, and t the time.

[2] = system: chloroquine resistant P. falciparum DD2 strain; test: In vitro growth of P. falciparum DD2, 3H-hypoxanthine uptake (Example 15); type: cell-based, Plasmodium falciparum; conditions: title: percentage inhibition of 3H-hypoxanthine uptake
L. major promastigotes [3] = test: In vitro growth of L. major promastigotes, 3H-thymidine uptake (Example 4); type: cell-based, Leishmania major; conditions: in vitro L. major growth test
L. major promastigotes [4] = test: L. major promastigotes from 4-days cultures, 3H-thymidine uptake (Examples 5, 14); type: cell-based, Leishmania major; conditions: Leishmania major, Table 14.1, read-out: percentage inhibition of promastigotes (upper figure)
Outline: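 Promastigotes harvested on day 4 of culture were exposed to compound, then pulsed with 100 μC 3H-thymidine for a further 18 h. Cells were collected on filter paper, washed, and incorporated radioactivity counted by scintillation.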

[5] = system: chloroquine-sensitive P. falciparum 3D7A strain; test: In vitro growth of P. falciparum 3D7A, 3H-hypoxanthine uptake (Example 15); type: cell-based, Plasmodium falciparum; conditions: for Percentage inhibition of 3H-hypoxanthine uptake (mean ± SEM): title: percentage inhibition of 3H-hypoxanthine uptake
P. falciparum = P. falciparum growth in vitro (Table 14.1, strain not stated); type: cell-based; conditions: Plasmodium falciparum, read-out: inhibition of malaria parasites (middle figure) (converted)
Outline: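 Parasitized erythrocytes (~1% parasitemia) in RPMI with graded compound concentrations, cultured 48 h. 3H-hypoxanthine added for the final 24 h. Growth measured as 3H-hypoxanthine incorporation into parasite DNA by liquid scintillation.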

[6] = 4-Hydroxychalcone toxicity study in mice, i.p. (Example 22); type: in vivo, BALB/c female mice; conditions: for No. died after 24 h: n 4
Description: Mice. BALB/c female mice, 8 weeks old, 20 g body weight.
Drug. 4Hydroxychalcone prepared as in Example 2.
LD50. 80 mg of 4hydroxychalcone was dissolved in 0.2 ml of 99% (v/v) ethanol, and then mixed with 240 mg of Brij 35 dissolved in 19.8 ml of buffer pH 73 (NaH2PO4.H2O 26 mg, Na2HPO4.2H2O 520 mg and distilled water 100 ml), and then sterile filtered through a 0.22 μm Millipore filter. Drug was injected intraperitoneally into mice once.

human lymphocytes = test: Lymphocyte Proliferation Assay, 3H-thymidine incorporation (Example 13); conditions: Homo sapiens, Lymphocyte, read-out: inhibition of lymphocytes (lower figure)
Strain = H37RV [7] = test: MIC with and without 10% human serum; type: cell-based; conditions: Mycobacterium tuberculosis, H37RV
Strain = H37RV [8] = conditions: cited from earlier work
[9] = with 10% Human Serum, read-out: MIC+serum
[10] = without 10% Human Serum, read-out: MIC−serum

C=CCOc1ccc(C(=O)CCc2ccc(OC)cc2OC)cc1
Estimated rate constant k [1]: 0.0011 min⁻¹

C=CC(C)(OC)c1cc(CCC(=O)c2ccc(O)cc2)c(OC)cc1O (centres unmarked)
Estimated rate constant k [1]: 0.00058 min⁻¹

C=CCOc1ccc(C(=O)/C=C/c2cccc(OC)c2OC)cc1 [2,3-Dimethoxy-4′-allyloxychalcone, 2,3-dimethoxy-4′-prop-2-enyloxychalcone]
Growth in % of control (mean ± SEM) ([2]; 0.5 μg/ml): 28.5 ± 9.6%
Growth in % of control (mean ± SEM) ([2]; 1 μg/ml): 29.6 ± 10.9%
Growth in % of control (mean ± SEM) ([2]; 5 μg/ml): 22.2 ± 10.1%
Growth in % of control (mean ± SEM) ([2]; 10 μg/ml): 49.9 ± 9.1%
melting point: 98 to 99 °C

C=CCOc1ccc(C(=O)/C=C/c2c(OC)cccc2OC)cc1 [2,6-Dimethoxy-4′-allyloxychalcone, 2,6-dimethoxy-4′-prop-2-enyloxychalcone]
Growth in % of control (mean ± SEM) ([2]; 0.5 μg/ml): 23.3 ± 10.9%
Growth in % of control (mean ± SEM) ([2]; 1 μg/ml): 24.3 ± 9.5%
Growth in % of control (mean ± SEM) ([2]; 5 μg/ml): 40.2 ± 8.7%
Growth in % of control (mean ± SEM) ([2]; 10 μg/ml): 56.7 ± 8.9%
melting point: 102 to 103 °C

COc1ccc(/C=C/C(=O)c2ccc(O)cc2)cc1OC [3,4-Dimethoxy-4′-hydroxychalcone, 3,4-dimethoxy-4′-hydroxychalcone]
Growth in % of control (mean ± SEM) ([2]; 0.5 μg/ml): 9.3 ± 9.2%
Growth in % of control (mean ± SEM) ([2]; 1 μg/ml): 7.1 ± 8.1%
Growth in % of control (mean ± SEM) ([2]; 5 μg/ml): 48.5 ± 8.4%
Growth in % of control (mean ± SEM) ([2]; 10 μg/ml): 82.6 ± 4.7%
melting point: 193 to 198 °C

CC(C)=CCc1cc(/C=C/C(=O)c2ccc(O)c(CC=C(C)C)c2O)ccc1O [4,2′,4′-trihydroxy-3,3′-di-(3-methylbut-2-enyl)chalcone]
antiparasitic effect in bioassay-guided fractionation (L. major promastigotes [3]): showed major antiparasitic effects

O=C(/C=C/c1ccc(O)cc1)c1ccccc1 [4-Hydroxychalcone, 4-hydroxychalcone]
inhibition at 0.5 µg/mL (L. major promastigotes [4]; 0.5 μg/ml): 7%
inhibition at 1 µg/mL (L. major promastigotes [4]; 1 μg/ml): 49.1 ± 16.8%
inhibition at 5 µg/mL (L. major promastigotes [4]; 5 μg/ml): 80.1 ± 12.6%
inhibition at 10 µg/mL (L. major promastigotes [4]; 10 μg/ml): 91 ± 5.4%
IC50 ([5]; Plasmodium falciparum, read-out: concentration in which growth was retarded by 50%): 1 to 5 µg/mL (≈ 4.46 to 22.3 µM)
Percentage inhibition of 3H-hypoxanthine uptake (mean ± SEM) ([5]; 0.5 μg/ml): 20.5 ± 10.9%
Percentage inhibition of 3H-hypoxanthine uptake (mean ± SEM) ([5]; 1 μg/ml): 29.2 ± 7.7%
Percentage inhibition of 3H-hypoxanthine uptake (mean ± SEM) ([5]; 5 μg/ml): 61.3 ± 10.6%
Percentage inhibition of 3H-hypoxanthine uptake (mean ± SEM) ([5]; 10 μg/ml): 88.2 ± 5.3%
inhibition at 0.5 µg/mL (P. falciparum; 0.5 μg/ml): 20.5%
inhibition at 1 µg/mL (P. falciparum; 1 μg/ml): 29.2%
inhibition at 5 µg/mL (P. falciparum; 5 μg/ml): 61.3%
inhibition at 10 µg/mL (P. falciparum; 10 μg/ml): 88.2%
No. died after 24 h ([6]; 50 mg/kg i.p.): 0
No. died after 24 h ([6]; 100 mg/kg i.p.): 0
No. died after 24 h ([6]; 200 mg/kg i.p.): 1
No. died after 24 h ([6]; 400 mg/kg i.p.): 2
LD50, intraperitoneally ([6]; mice): 400 mg per kg
inhibition at 1 µg/mL (human lymphocytes): 2.24%
inhibition at 5 µg/mL (human lymphocytes): 7.73%
inhibition at 10 µg/mL (human lymphocytes): 14.2%

CC(C)=CCc1c(O)ccc(C(=O)/C=C/c2cc(O)c3c(c2)C=CC(C)(C)O3)c1O [(A)]
antiparasitic effect in bioassay-guided fractionation (L. major promastigotes [3]): Only the latter compound showed major antiparasitic effects

CC[C@@H](CO)NCCN[C@@H](CC)CO [Ethambutol]
MIC (Strain = H37RV [7]; [9]): 2 µg/mL (≈ 9.79 µM)
MIC (Strain = H37RV [7]; [10]): 1 µg/mL (≈ 4.89 µM)
protein binding (Strain = H37RV [8]): (40% protein

CC(=O)O[C@H]1C[C@@]2(C)[C@@H](C[C@@H](O)[C@H]3[C@@]4(C)CC[C@@H](O)[C@@H](C)[C@@H]4CC[C@@]32C)/C1=C(\CCC=C(C)C)C(=O)O [Fusidic acid]
MIC (Strain = H37RV [7]; [9]): 32 µg/mL (≈ 61.9 µM)
MIC (Strain = H37RV [7]; [10]): 8 µg/mL (≈ 15.5 µM)
protein binding (Strain = H37RV [8]): (90% protein

CC1COc2c(N3CCN(C)CC3)c(F)cc3c(=O)c(C(=O)O)cn1c23 (centres unmarked) [Ofloxacin]
MIC (Strain = H37RV [7]; [9]): 0.5 µg/mL (≈ 1.38 µM)
MIC (Strain = H37RV [7]; [10]): 0.5 µg/mL (≈ 1.38 µM)
protein binding (Strain = H37RV [8]): (5% protein

O=C(/C=C/c1ccccc1)c1ccccc1 [drawing 102, chalcone, reference compound]
Estimated rate constant k [1]: 0.034 min⁻¹

COc1ccc(C(=O)/C=C/c2ccccc2)cc1 [drawing 103, 4′-methoxychalcone]
Estimated rate constant k [1]: 0.016 min⁻¹

COc1ccc(/C=C/C(=O)c2ccccc2)c(OC)c1 [drawing 104]
Estimated rate constant k [1]: 0.0033 min⁻¹

O=C(/C=C/c1ccc(O)cc1)c1ccc(O)cc1 [drawing 105]
Estimated rate constant k [1]: 0.0020 min⁻¹
